Results taken from article PMC9856672, “SGC-CAMKK2-1: A Chemical Probe for CAMKK2” (Cells, 2023).

How the values were obtained:
WEE2 = biological target: T1, WEE2 (Homo sapiens, UniProt P0C1S8); experiment: DiscoverX KINOMEscan binding assay at 1 μM, WEE2; settings: Compound Concentration 1000 nM, read-out: Percent Control
T1 construct: purchased Eurofins DiscoverX KINOMEscan
Text: (§1) Supplement cells-12-00287-s001.zip/File S2. KinomeScan data for the CAMKK2 probe and negative control.xlsx, sheet "SGC-CAMKK2-1" | column: Percent Control

MST1R = biological target: T2, MST1R (Homo sapiens, UniProt Q04912); experiment: KINOMEscan 1 μM, MST1R; type: binding; settings: 1000 nM; Entrez MST1R; read-out: Percent Control
T2 construct: purchased Eurofins DiscoverX KINOMEscan
Text: as §1

LATS2 = biological target: T3, LATS2 (Homo sapiens, UniProt Q9NRM7); experiment: KINOMEscan 1 μM, LATS2; type: binding; settings: 1000 nM; Entrez LATS2; read-out: Percent Control
T3 construct: purchased Eurofins DiscoverX KINOMEscan
Text: as §1

CTK = biological target: T4, CTK (Homo sapiens, UniProt P42679); experiment: KINOMEscan 1 μM, CTK; type: binding; settings: 1000 nM; Entrez MATK; read-out: Percent Control
T4 construct: purchased Eurofins DiscoverX KINOMEscan
Text: as §1

PIK3CA(I800L) = biological target: T5, PIK3CA(I800L) (Homo sapiens, UniProt P42336, I800L); experiment: KINOMEscan 1 μM, PIK3CA(I800L); type: binding; settings: 1000 nM; Entrez PIK3CA; read-out: Percent Control
T5 construct: purchased Eurofins DiscoverX KINOMEscan
Text: as §1

PRKCE = biological target: T6, PRKCE (Homo sapiens, UniProt Q02156); experiment: KINOMEscan 1 μM, PRKCE; type: binding; settings: 1000 nM; Entrez PRKCE; read-out: Percent Control
T6 construct: purchased Eurofins DiscoverX KINOMEscan
Text: as §1

CSF1R = biological target: T7, CSF1R (Homo sapiens, UniProt P07333); experiment: KINOMEscan 1 μM, CSF1R; type: binding; settings: 1000 nM; Entrez CSF1R; read-out: Percent Control
T7 construct: purchased Eurofins DiscoverX KINOMEscan
Text: as §1

MET = biological target: T8, MET (Homo sapiens, UniProt P08581); experiment: KINOMEscan 1 μM, MET; type: binding; settings: 1000 nM; Entrez MET; read-out: Percent Control
T8 construct: purchased Eurofins DiscoverX KINOMEscan
Text: as §1

SNARK = biological target: T9, SNARK (Homo sapiens, UniProt Q9H093); experiment: DiscoverX KINOMEscan binding assay at 1 μM, SNARK; settings: SNARK (NUAK2); Compound Concentration 1000 nM; read-out: Percent Control
T9 construct: purchased Eurofins DiscoverX KINOMEscan
Text: as §1

EPHB4 = biological target: T10, EPHB4 (Homo sapiens, UniProt P54760); experiment: KINOMEscan 1 μM, EPHB4; type: binding; settings: 1000 nM; Entrez EPHB4; read-out: Percent Control
T10 construct: purchased Eurofins DiscoverX KINOMEscan
Text: as §1

YANK2 = biological target: T11, YANK2 (Homo sapiens, UniProt Q9NY57); experiment: DiscoverX KINOMEscan binding assay at 1 μM, YANK2; settings: YANK2 (STK32B); Compound Concentration 1000 nM; read-out: Percent Control
T11 construct: purchased Eurofins DiscoverX KINOMEscan
Text: as §1

DCAMKL3 = biological target: T12, DCAMKL3 (Homo sapiens, UniProt Q9C098); experiment: KINOMEscan 1 μM, DCAMKL3; type: binding; settings: 1000 nM; Entrez DCLK3; read-out: Percent Control
T12 construct: purchased Eurofins DiscoverX KINOMEscan
Text: as §1

MARK2 [1] = biological target: T13, MARK2 (Homo sapiens, UniProt Q7KZI7); experiment: KINOMEscan 1 μM, MARK2; type: binding; settings: 1000 nM; Entrez MARK2; read-out: Percent Control
T13 construct: purchased Eurofins DiscoverX KINOMEscan
Text: as §1

CDK4 = biological target: T14, CDK4 (Homo sapiens, UniProt P11802); experiment: KINOMEscan 1 μM, CDK4; type: binding; settings: 1000 nM; Entrez CDK4; read-out: Percent Control
T14 construct: purchased Eurofins DiscoverX KINOMEscan
Text: as §1

RIPK4 = biological target: T15, RIPK4 (Homo sapiens, UniProt P57078); experiment: DiscoverX KINOMEscan binding assay at 1 μM, RIPK4; settings: Compound Concentration 1000 nM, read-out: Percent Control
T15 construct: purchased Eurofins DiscoverX KINOMEscan
Text: as §1

ACVR2B = biological target: T16, ACVR2B (Homo sapiens, UniProt Q13705); experiment: KINOMEscan 1 μM, ACVR2B; type: binding; settings: 1000 nM; Entrez ACVR2B; read-out: Percent Control
T16 construct: purchased Eurofins DiscoverX KINOMEscan
Text: as §1

FER = biological target: T17, FER (Homo sapiens, UniProt P16591); experiment: KINOMEscan binding assay at 1 μM, FER; settings: Compound Concentration 1000 nM; read-out: Percent Control
T17 construct: purchased Eurofins DiscoverX KINOMEscan
Text: (§2) Supplement cells-12-00287-s001.zip/File S2. KinomeScan data for the CAMKK2 probe and negative control.xlsx, sheet "SGC-CAMKK2-1N" | column: Percent Control

PIK3CA(C420R) = biological target: T18, PIK3CA(C420R) (Homo sapiens, UniProt P42336, C420R); experiment: KINOMEscan at 1 μM, PIK3CA(C420R); type: binding; settings: 1000 nM, read-out: Percent Control
T18 construct: purchased Eurofins DiscoverX KINOMEscan
Text: as §2

MARK2 [2] = biological target: T13, MARK2; experiment: KINOMEscan at 1 μM, MARK2; type: binding; settings: 1000 nM, read-out: Percent Control
Text: as §2

CDK7 = biological target: T19, CDK7 (Homo sapiens, UniProt P50613); experiment: KINOMEscan at 1 μM, CDK7; type: binding; settings: 1000 nM, read-out: Percent Control
T19 construct: purchased Eurofins DiscoverX KINOMEscan
Text: as §2

RET(M918T) = biological target: T20, RET(M918T) (Homo sapiens, UniProt P07949, M918T); experiment: KINOMEscan at 1 μM, RET(M918T); type: binding; settings: 1000 nM, read-out: Percent Control
T20 construct: purchased Eurofins DiscoverX KINOMEscan
Text: as §2

[3] = biological target: T21, ABL1(F317I)-phosphorylated (Homo sapiens, UniProt P00519, F317I); experiment: KINOMEscan at 1 μM, ABL1(F317I)-phosphorylated; type: binding; settings: 1000 nM, read-out: Percent Control
T21 construct: purchased Eurofins DiscoverX KINOMEscan
Text: as §2

LOK = biological target: T22, LOK (Homo sapiens, UniProt O94804); experiment: KINOMEscan binding assay at 1 μM, LOK; settings: Compound Concentration 1000 nM; read-out: Percent Control
T22 construct: purchased Eurofins DiscoverX KINOMEscan
Text: as §2

MET(M1250T) = biological target: T23, MET(M1250T) (Homo sapiens, UniProt P08581, M1250T); experiment: KINOMEscan binding assay at 1 μM, MET(M1250T); settings: Compound Concentration 1000 nM; read-out: Percent Control
T23 construct: purchased Eurofins DiscoverX KINOMEscan
Text: as §2

CSNK1G1 = biological target: T24, CSNK1G1 (Homo sapiens, UniProt Q9HCP0); experiment: KINOMEscan at 1 μM, CSNK1G1; type: binding; settings: 1000 nM, read-out: Percent Control
T24 construct: purchased Eurofins DiscoverX KINOMEscan
Text: as §2

[4] = biological target: T25, TYK2(JH1domain-catalytic) (Homo sapiens, UniProt P29597); experiment: KINOMEscan at 1 μM, TYK2(JH1domain-catalytic); type: binding; settings: 1000 nM, read-out: Percent Control
T25 construct: TYK2(JH1domain-catalytic); purchased Eurofins DiscoverX KINOMEscan
Text: as §2

HASPIN = biological target: T26, HASPIN (Homo sapiens, UniProt Q8TF76); experiment: KINOMEscan binding assay at 1 μM, HASPIN; settings: Compound Concentration 1000 nM; read-out: Percent Control
T26 construct: purchased Eurofins DiscoverX KINOMEscan
Text: as §2

LRRK2 = biological target: T27, LRRK2 (Homo sapiens, UniProt Q5S007); experiment: KINOMEscan at 1 μM, LRRK2; type: binding; settings: 1000 nM, read-out: Percent Control
T27 construct: purchased Eurofins DiscoverX KINOMEscan
Text: as §2

PIK3C2G = biological target: T28, PIK3C2G (Homo sapiens, UniProt O75747); experiment: KINOMEscan binding assay at 1 μM, PIK3C2G; settings: Compound Concentration 1000 nM; read-out: Percent Control
T28 construct: purchased Eurofins DiscoverX KINOMEscan
Text: as §2

PLK2 = biological target: T29, PLK2 (Homo sapiens, UniProt Q9NYY3); experiment: KINOMEscan at 1 μM, PLK2; type: binding; settings: 1000 nM, read-out: Percent Control
T29 construct: purchased Eurofins DiscoverX KINOMEscan
Text: as §2

RAF1 = biological target: T30, RAF1 (Homo sapiens, UniProt P04049); experiment: KINOMEscan at 1 μM, RAF1; type: binding; settings: 1000 nM, read-out: Percent Control
T30 construct: purchased Eurofins DiscoverX KINOMEscan
Text: as §2

MARK3 = biological target: T31, MARK3 (Homo sapiens, UniProt P27448); experiment: KINOMEscan at 1 μM, MARK3; type: binding; settings: 1000 nM, read-out: Percent Control
T31 construct: purchased Eurofins DiscoverX KINOMEscan
Text: as §2

[5] = biological target: T32, JAK1(JH2domain-pseudokinase) (Homo sapiens, UniProt P23458); experiment: KINOMEscan at 1 μM, JAK1(JH2domain-pseudokinase); type: binding; settings: 1000 nM, read-out: Percent Control
T32 construct: JAK1(JH2domain-pseudokinase); purchased Eurofins DiscoverX KINOMEscan
Text: as §2

T13 sequence (Q7KZI7 whole entry): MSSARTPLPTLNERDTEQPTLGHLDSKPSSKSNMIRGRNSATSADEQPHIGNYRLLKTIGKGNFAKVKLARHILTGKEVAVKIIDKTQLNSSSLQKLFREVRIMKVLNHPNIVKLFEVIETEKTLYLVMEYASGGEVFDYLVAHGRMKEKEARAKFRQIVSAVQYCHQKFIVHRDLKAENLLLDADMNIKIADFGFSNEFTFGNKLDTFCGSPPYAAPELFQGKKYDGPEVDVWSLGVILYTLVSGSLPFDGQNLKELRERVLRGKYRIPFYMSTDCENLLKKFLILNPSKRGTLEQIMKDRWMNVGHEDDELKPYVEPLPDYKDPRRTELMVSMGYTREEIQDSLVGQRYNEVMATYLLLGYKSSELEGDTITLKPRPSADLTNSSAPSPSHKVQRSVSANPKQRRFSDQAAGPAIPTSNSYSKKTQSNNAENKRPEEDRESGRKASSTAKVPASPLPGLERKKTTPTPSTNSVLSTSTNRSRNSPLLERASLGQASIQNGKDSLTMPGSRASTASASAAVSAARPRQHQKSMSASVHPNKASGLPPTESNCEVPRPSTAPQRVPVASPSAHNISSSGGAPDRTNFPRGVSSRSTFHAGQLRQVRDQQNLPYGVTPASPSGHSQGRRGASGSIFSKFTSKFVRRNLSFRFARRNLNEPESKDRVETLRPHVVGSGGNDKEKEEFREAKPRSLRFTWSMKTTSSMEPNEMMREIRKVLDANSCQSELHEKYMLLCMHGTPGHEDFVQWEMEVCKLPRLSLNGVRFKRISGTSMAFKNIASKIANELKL
T4 sequence (P42679 whole entry): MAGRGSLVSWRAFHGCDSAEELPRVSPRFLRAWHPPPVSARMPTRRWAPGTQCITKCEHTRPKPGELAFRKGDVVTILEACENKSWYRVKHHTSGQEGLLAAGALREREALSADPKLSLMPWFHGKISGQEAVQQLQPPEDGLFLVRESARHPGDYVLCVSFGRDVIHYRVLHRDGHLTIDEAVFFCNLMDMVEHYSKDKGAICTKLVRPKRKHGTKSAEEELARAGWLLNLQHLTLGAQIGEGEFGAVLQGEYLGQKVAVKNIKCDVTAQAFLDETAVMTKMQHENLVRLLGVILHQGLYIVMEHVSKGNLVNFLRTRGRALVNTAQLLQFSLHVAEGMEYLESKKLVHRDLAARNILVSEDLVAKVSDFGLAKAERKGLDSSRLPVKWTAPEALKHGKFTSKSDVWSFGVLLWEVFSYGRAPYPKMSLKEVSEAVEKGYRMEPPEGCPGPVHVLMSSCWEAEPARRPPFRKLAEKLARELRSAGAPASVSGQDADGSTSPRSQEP
T28 sequence (O75747 whole entry): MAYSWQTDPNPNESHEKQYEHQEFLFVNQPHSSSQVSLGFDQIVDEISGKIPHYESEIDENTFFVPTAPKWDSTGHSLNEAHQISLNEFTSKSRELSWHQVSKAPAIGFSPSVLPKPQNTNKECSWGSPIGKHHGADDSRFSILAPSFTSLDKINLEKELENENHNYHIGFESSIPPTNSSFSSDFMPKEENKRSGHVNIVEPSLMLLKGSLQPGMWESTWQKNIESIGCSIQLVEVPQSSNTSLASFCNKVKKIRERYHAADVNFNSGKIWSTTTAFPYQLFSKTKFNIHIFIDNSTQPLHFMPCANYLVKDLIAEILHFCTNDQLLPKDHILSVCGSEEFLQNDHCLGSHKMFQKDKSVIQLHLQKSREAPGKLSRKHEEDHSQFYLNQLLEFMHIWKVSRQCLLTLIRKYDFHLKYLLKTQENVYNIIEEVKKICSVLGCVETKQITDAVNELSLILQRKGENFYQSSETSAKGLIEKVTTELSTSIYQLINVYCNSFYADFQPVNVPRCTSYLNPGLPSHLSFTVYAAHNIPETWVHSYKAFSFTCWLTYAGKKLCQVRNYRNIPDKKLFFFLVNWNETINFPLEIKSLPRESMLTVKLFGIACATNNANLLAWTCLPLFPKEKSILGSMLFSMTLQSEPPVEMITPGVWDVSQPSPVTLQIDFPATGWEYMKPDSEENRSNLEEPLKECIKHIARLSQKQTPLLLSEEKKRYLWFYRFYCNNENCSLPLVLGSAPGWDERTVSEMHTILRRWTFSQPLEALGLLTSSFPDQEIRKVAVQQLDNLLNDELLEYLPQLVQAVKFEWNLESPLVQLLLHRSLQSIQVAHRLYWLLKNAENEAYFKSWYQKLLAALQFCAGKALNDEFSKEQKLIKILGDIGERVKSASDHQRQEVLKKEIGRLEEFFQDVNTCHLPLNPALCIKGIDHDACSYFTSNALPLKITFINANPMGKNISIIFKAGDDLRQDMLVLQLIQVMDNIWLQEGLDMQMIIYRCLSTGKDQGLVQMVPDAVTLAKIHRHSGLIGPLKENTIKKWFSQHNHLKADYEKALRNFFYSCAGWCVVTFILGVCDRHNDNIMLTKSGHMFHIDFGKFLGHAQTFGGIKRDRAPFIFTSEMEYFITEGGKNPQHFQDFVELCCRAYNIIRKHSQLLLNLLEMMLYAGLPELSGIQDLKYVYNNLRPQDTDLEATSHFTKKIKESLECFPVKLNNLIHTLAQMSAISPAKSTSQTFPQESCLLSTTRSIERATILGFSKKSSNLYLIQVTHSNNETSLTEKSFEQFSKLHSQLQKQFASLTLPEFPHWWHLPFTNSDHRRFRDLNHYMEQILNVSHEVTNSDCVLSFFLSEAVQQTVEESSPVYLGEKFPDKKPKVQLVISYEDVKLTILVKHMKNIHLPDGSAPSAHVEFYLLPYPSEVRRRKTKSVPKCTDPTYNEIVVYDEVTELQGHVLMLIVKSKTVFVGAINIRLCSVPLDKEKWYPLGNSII
T9 sequence (Q9H093 whole entry): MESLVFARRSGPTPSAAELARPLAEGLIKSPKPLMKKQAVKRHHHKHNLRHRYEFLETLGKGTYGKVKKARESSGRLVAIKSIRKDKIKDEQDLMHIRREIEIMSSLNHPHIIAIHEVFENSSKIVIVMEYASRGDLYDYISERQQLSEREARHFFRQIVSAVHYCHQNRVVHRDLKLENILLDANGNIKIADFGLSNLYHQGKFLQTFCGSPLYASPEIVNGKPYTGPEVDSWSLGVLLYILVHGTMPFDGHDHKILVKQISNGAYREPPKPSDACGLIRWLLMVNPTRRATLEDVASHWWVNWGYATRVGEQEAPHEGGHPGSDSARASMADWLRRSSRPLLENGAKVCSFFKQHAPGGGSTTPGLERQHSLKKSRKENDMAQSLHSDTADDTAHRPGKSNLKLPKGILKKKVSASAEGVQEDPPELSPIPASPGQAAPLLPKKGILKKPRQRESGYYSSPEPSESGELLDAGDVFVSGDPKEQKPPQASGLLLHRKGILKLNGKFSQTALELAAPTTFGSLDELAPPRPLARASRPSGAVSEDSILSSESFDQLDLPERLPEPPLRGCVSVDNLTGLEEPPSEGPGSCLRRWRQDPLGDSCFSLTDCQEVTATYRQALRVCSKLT
T18 sequence (P42336 whole entry C420R): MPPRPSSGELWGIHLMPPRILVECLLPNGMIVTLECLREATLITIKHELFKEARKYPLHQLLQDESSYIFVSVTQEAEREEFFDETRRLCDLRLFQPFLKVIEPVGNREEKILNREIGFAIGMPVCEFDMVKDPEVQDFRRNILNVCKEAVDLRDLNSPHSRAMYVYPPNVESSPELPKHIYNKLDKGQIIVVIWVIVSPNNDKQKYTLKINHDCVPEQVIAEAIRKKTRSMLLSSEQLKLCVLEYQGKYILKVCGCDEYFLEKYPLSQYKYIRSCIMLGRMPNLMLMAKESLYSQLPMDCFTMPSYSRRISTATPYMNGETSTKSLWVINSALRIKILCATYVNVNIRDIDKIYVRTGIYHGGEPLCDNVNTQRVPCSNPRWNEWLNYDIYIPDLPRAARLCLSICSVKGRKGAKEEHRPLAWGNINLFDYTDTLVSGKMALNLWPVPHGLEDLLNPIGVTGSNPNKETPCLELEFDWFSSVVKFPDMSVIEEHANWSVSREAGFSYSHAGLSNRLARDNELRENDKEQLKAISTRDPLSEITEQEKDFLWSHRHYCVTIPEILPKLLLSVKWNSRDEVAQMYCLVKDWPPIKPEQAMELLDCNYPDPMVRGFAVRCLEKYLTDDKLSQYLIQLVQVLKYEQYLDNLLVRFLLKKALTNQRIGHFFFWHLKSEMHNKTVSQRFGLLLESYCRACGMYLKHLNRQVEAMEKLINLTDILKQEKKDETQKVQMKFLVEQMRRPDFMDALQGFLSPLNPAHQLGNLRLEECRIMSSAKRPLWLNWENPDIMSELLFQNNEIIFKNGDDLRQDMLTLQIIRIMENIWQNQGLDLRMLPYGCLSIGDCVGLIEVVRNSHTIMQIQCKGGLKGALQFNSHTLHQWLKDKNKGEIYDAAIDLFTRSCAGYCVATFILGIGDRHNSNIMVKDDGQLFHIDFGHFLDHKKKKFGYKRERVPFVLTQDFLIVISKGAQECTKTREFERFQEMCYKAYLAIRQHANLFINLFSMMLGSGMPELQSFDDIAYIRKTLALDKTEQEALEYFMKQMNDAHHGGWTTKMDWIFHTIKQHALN
T19 sequence (P50613 whole entry): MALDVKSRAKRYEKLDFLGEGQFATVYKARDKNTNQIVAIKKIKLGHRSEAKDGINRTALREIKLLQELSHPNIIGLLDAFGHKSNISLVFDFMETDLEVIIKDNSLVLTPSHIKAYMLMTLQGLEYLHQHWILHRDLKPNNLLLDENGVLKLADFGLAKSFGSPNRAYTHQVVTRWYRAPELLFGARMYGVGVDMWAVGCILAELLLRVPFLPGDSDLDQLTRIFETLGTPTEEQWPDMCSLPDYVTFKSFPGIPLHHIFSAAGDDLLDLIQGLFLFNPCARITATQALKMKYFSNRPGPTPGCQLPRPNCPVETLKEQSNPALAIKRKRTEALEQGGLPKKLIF
T5 sequence (P42336 whole entry I800L): as the sequence (P42336 whole entry C420R) above, with R420C, I800L counted along it

## Cc1cccc(-c2cnc3occ(-c4ccc(C(=O)O)c(C5CCCC5)c4)c3c2)c1 [SGC-CAMKK2-1 (YL-36)]
WEE2
  remaining binding at 1 µM: 100%
MST1R
  remaining binding at 1 µM: 86%
LATS2
  remaining binding at 1 µM: 72%
CTK
  remaining binding at 1 µM: 100%
PIK3CA(I800L)
  remaining binding at 1 µM: 85%
PRKCE
  remaining binding at 1 µM: 90%
CSF1R
  remaining binding at 1 µM: 100%
MET
  remaining binding at 1 µM: 92%
SNARK
  remaining binding at 1 µM: 100%
EPHB4
  remaining binding at 1 µM: 98%
YANK2
  remaining binding at 1 µM: 100%
DCAMKL3
  remaining binding at 1 µM: 100%
MARK2 [1]
  remaining binding at 1 µM: 100%
CDK4
  remaining binding at 1 µM: 100%
RIPK4
  remaining binding at 1 µM: 100%
ACVR2B
  remaining binding at 1 µM: 43%

## O=C(O)c1ccc(-c2coc3ncc(-c4ccccc4)cc23)cc1Cl [SGC-CAMKK2-1N (UNC-YL-83)]
FER
  remaining binding at 1 µM: 100%
PIK3CA(C420R)
  remaining binding at 1 µM: 0%
MARK2 [2]
  remaining binding at 1 µM: 70%
CDK7
  remaining binding at 1 µM: 66%
RET(M918T)
  remaining binding at 1 µM: 99%
[3]
  remaining binding at 1 µM: 90%
LOK
  remaining binding at 1 µM: 100%
MET(M1250T)
  remaining binding at 1 µM: 100%
CSNK1G1
  remaining binding at 1 µM: 95%
[4]
  remaining binding at 1 µM: 89%
HASPIN
  remaining binding at 1 µM: 100%
LRRK2
  remaining binding at 1 µM: 47%
PIK3C2G
  remaining binding at 1 µM: 100%
PLK2
  remaining binding at 1 µM: 91%
RAF1
  remaining binding at 1 µM: 79%
MARK3
  remaining binding at 1 µM: 61%
[5]
  remaining binding at 1 µM: 80%
